Source: the METLIN SMRT retention time set (Domingo-Almenara et al. 2019)

Assay: gradient 5% acetonitrile 3 min, to 50% in 2 min, to 85% in 15 min, held 3 min, 100 µL/min
Details: column: Zorbax Extend-C18 2.1 x 50 mm; eluents: water / acetonitrile, 0.1% formic acid
Summary of the method: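 Pure standards were run in mixtures of ~100 molecules by HPLC coupled to a quadrupole time-of-flight mass spectrometer. The column was a Zorbax Extend-C18 (2.1 × 50 mm, 1.8 μm) at 100 μL/min, with water and acetonitrile each containing 0.1% formic acid, in positive and negative ionization mode. Dead and dwell volumes were 40 μL and 900 μL. Retention time was taken from computationally picked adduct peaks, each manually inspected, with data collected over 3 months.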

Compound | RP-LC retention time [s]
COc1ccc(NC(=O)C2CCc3nc(N4CCCC4)ncc3C2)c(C)c1 (configuration not stated) | 698
COc1ccc(CNC(=O)CN2C(=O)NC3(CCCCC3)C2=O)cc1 | 719
CCN1C(=O)CN(C(=O)c2cccs2)CC12CCOCC2 | 631
CSc1nnc(-c2cccc(S(=O)(=O)N3CCCC3)c2)o1 | 770
O=C(Cn1cccc(-c2nc(-c3ccc(F)cc3)no2)c1=O)Nc1ccc(F)c(Cl)c1 | 960
COCc1noc(C2CN(C(=O)c3cn[nH]c3)CC23CCCC3)n1 (configuration not stated) | 637
CC1CCCCN1S(=O)(=O)c1ccc(C(=O)Nc2nc3c(s2)Cc2ccccc2-3)cc1 (configuration not stated) | 1190
CCOc1ccc(S(=O)(=O)N2CCC(C(=O)N3CCN(C)CC3)CC2)cc1C | 654
COCCCNC(=O)c1ccc2c(c1)nc1n2CCN(C2CCCCC2)C1=O | 1240
CN1C(=O)c2cc(C(=O)NCc3ccccc3F)nn2CC1(C)C(=O)NC1CCCC1 (configuration not stated) | 698
O=C1Nc2ccc(I)cc2C1=Cc1cc(Br)c(O)c(Br)c1 | 1090
COc1ccc(OC)c(NC(=O)CSC2CCc3ccccc3NC2=O)c1 (configuration not stated) | 797
CCOC(=O)C1CCN(C(=O)c2ccc(-c3csc(C4CC4)n3)cc2)CC1 | 961
CCc1nc(-c2cccc(-c3noc(CNC(=O)Cc4ccc(Cl)cc4)n3)c2)cs1 | 1100
O=C(Nc1nnc(-c2cc3ccccc3o2)o1)c1ccc(Cl)s1 | 902
O=C(Nc1cccc(Cl)c1)C1CCCN(S(=O)(=O)c2c[nH]c(C(=O)N3CCCCCC3)c2)C1 (configuration not stated) | 964
COc1cccc(-n2nnc(-c3nc(-c4ccccc4OC)cs3)c2N)c1 | 1120
Cn1ncc2c3ccccc3n(CCCC(=O)NCCc3c[nH]c4ccccc34)c2c1=O | 815
Cc1ccc(N2CC(c3nc(-c4ccc5c(c4)nnn5C4CCCC4)no3)CC2=O)cc1 (configuration not stated) | 1070

Compound | RP-LC retention time [s]
CSc1ccc(-c2noc(Cn3c(=O)n(CC(C)C)c(=O)c4ccccc43)n2)cc1 | 1210
CSc1cccc(Nc2c(C(=O)N3CCOCC3)cnc3nc(C)ccc23)c1 | 606
Cc1ccccc1C(=O)Nc1cc(-c2cccs2)no1 | 947
CCOC(=O)c1[nH]c(C)c(CCC(=O)N2CCC(C(=O)NCc3cccnc3)CC2)c1C | 597
O=C(c1cccc(Br)c1)N1CCC(n2c(-c3ccco3)nc3cccnc32)C1 (configuration not stated) | 814
COc1cccc(N2CCN(S(=O)(=O)c3cc(-c4cc(C(F)(F)F)on4)sc3C)CC2)c1 | 1260
CCCCOc1ccc(C(=O)N2CCOC(c3ccccc3)C2)cc1 (configuration not stated) | 1060
O=C(NCC1CC1)c1cn(-c2cc(-c3nc(C4CC4)no3)ccn2)cn1 | 848
COc1ccccc1-c1nc(-c2ccc3nnn(C)c3c2)no1 | 923
Cc1ccc(CNC(=O)C2(C)Cn3nc(C(=O)NCCN4CCCCC4)cc3C(=O)N2C)cc1 (configuration not stated) | 606
Cc1ccc(S(=O)(=O)N2C[C@@H]3C[C@H](NC(=O)c4ccccc4)[C@H]2C3)cc1Cl | 969
Cc1nc(N)sc1-c1ccnc(Nc2ccc(N3CCOCC3)cc2)n1 | 624
CC(C)(C)n1nnnc1C1CC2(CCOCC2)C(=O)N1Cc1ccc(F)cc1 (configuration not stated) | 798
COc1ccc(NC(=O)N2CCC3(CC2)Nc2ccccc2-n2cccc23)c(OC)c1 | 1000
COCCNC(=O)CC1CCN(C(=O)c2cc3cc(Cl)ccc3[nH]2)CC1 | 701
CCOC(=O)c1cn[nH]c1S(=O)(=O)Nc1ccc2c(c1)OCCO2 | 683
CCOC(=O)c1cc(-c2cccc(OC)c2OC)no1 | 896
CN(CCNC(=O)C1CCCN(c2cnc3nccnc3c2)C1)C1CCCCC1 (configuration not stated) | 577
